Results on 26 compounds are retold here after patent publication US9006450B2 (Boehringer Ingelheim International GmbH, priority 2010, dated 2015).

T1 sequence (O00763 129-2458 limits assumed): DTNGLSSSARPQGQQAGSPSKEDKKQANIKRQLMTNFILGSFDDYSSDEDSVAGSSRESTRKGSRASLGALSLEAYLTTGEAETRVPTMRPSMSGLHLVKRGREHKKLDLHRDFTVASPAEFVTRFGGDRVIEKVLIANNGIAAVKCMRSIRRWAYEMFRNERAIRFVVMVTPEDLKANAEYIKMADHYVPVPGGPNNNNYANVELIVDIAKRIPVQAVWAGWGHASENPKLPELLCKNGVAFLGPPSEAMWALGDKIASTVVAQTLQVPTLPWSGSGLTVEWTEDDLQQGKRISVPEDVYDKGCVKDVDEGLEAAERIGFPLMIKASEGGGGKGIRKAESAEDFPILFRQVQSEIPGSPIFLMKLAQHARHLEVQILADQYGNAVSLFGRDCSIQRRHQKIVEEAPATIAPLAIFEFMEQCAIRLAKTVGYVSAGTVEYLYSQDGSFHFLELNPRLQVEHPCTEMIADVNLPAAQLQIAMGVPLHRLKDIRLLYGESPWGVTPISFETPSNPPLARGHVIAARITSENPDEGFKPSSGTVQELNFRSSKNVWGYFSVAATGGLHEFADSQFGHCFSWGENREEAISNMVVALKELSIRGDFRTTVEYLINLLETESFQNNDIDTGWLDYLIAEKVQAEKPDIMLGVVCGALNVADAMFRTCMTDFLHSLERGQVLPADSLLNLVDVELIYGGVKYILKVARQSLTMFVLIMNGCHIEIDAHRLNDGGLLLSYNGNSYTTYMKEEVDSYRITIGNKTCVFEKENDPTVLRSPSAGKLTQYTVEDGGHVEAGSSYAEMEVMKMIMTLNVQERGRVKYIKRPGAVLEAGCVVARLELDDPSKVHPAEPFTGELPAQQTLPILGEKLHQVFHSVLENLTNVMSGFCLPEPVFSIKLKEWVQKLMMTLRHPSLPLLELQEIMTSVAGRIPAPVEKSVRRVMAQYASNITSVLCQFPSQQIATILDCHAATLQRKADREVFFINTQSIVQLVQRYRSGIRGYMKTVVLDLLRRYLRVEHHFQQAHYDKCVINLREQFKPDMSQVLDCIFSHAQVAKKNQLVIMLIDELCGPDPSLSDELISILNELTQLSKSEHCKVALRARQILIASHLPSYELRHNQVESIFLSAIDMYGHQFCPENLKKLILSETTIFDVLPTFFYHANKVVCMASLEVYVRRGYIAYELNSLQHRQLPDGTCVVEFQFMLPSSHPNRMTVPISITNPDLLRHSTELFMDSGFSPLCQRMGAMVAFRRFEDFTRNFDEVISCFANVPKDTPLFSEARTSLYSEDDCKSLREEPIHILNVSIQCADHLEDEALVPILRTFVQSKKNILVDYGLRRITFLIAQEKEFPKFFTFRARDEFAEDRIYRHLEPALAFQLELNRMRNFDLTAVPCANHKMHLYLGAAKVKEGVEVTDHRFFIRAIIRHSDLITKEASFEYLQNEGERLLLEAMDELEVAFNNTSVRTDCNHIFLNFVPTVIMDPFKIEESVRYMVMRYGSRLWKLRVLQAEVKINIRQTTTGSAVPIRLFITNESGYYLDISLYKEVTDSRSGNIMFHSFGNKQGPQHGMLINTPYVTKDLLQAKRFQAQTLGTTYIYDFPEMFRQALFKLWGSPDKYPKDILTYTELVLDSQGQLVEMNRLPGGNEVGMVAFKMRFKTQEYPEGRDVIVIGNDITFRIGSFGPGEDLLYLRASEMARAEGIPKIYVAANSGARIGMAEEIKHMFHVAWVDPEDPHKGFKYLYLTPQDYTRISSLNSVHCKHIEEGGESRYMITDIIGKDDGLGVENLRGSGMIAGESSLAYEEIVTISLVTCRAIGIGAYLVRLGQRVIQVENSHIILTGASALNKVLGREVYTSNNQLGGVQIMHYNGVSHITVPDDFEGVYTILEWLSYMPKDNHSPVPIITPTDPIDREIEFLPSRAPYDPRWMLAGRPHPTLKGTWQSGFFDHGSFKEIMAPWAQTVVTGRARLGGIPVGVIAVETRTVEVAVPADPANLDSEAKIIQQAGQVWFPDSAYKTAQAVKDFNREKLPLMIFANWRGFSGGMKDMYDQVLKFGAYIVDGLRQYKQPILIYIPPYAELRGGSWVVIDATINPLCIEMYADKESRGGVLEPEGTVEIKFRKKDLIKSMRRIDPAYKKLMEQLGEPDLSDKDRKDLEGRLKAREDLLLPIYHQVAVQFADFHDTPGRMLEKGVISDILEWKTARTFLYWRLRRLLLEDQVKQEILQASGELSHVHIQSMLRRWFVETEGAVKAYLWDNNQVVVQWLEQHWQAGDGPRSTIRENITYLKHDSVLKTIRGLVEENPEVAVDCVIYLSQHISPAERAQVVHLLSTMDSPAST

This assay has as its target T1, human ACC2 (Homo sapiens, UniProt O00763).
T1 construct: made in house; host or cells: insect cells (baculoviral expression system)
Description: ACC2 assay, spectrophotometric 384 well assay (NADH-linked, coupled lactate dehydrogenase/pyruvate kinase). Format: biochemical. As to conditions: ACC2 assay, hACC2 construct lacking 128 N-terminal amino acids, 25° C., 340 nm; read-out: IC50. The method, boiled down: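 ADP output tracked via pyruvate kinase/lactate dehydrogenase NADH oxidation, slope at 340 nm over 15 min, 25° C, with 500 μM ATP and 200 μM each acetyl-CoA and NADH. Enzyme: insect-cell-expressed human ACC2, N-terminal 128 residues deleted; pH 7.5 Tris with citrate, KHCO3. IC50 from four-parameter regression versus vehicle and no-acetyl-CoA controls.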
As for `CC(=O)N[C@@H](C)c1ccc(C2CCN(c3ncc(C(=O)Nc4ccccn4)cn3)CC2)cc1` [Example 18.15], the IC50 (commonly the midpoint of a concentration-inhibition curve) worked out at 7.2 µM.
For the compound `COc1ccccc1NC(=O)c1cnc(N2CCC(c3ccc([C@H](C)NC(C)=O)cc3)CC2)nc1` [Example 18.16], the IC50 was 5.1 µM.
Turning to `CC(=O)N[C@@H](C)c1ccc(C2CCN(c3ncc(C(=O)Nc4ccc(C)cc4)cn3)CC2)cc1` [Example 18.17], the IC50 is 7.9 µM.
As for `CC(=O)N[C@@H](C)c1ccc(C2CCN(c3ncc(C(=O)Nc4ccc5c(c4)OCO5)cn3)CC2)cc1` [Example 18.18], the 50% inhibitory concentration (IC50) was 1.1 µM.
For `COc1ccc(CNC(=O)c2cnc(N3CCC(c4ccc([C@H](C)NC(C)=O)cc4)CC3)nc2)cc1` [Example 18.19], the IC50 was 20.5 µM.
Consider `CC(=O)N[C@@H](C)c1ccc(C2CCN(c3ncc(C(=O)N4CC5CCCC5C4)cn3)CC2)cc1` (some centres unmarked) [Example 18.20], for which the IC50 worked out at 0.53 µM.
The figure for `CC(=O)N[C@@H](C)c1ccc(C2CCN(c3ncc(C(=O)NCc4cc[nH]n4)cn3)CC2)cc1` [Example 18.21] is 2.6 µM; for `CC(=O)N[C@@H](C)c1ccc(C2CCN(c3ncc(C(=O)NCc4ccn(C)n4)cn3)CC2)cc1` [Example 18.22] it is 11.4 µM.
`COC1CN(C(=O)c2cnc(N3CCC(c4ccc([C@H](C)NC(C)=O)cc4)CC3)nc2)C1` [Example 18.23]: the half-maximal inhibitory concentration (IC50) stood at 3.1 µM.
As for `COC1CCN(C(=O)c2cnc(N3CCC(c4ccc([C@H](C)NC(C)=O)cc4)CC3)nc2)CC1` [Example 18.24], the IC50 came out at 5.2 µM.
For `COCCN(C)C(=O)c1cnc(N2CCC(c3ccc([C@H](C)NC(C)=O)cc3)CC2)nc1` [Example 18.25], the IC50 is 7.1 µM.
In the case of `CC(=O)N[C@@H](C)c1ccc(C2CCN(c3ncc(C(=O)N(C)C4CC4)cn3)CC2)cc1` [Example 18.26], the IC50 was 2.5 µM.
Take `COC[C@H]1CCCN1C(=O)c1cnc(N2CCC(c3ccc([C@H](C)NC(C)=O)cc3)CC2)nc1` [Example 18.27]: the IC50 stood at 10.4 µM.
On to `CC(=O)N[C@@H](C)c1ccc(C2CCN(c3ncc(C(=O)N4Cc5cnn(C)c5C4)cn3)CC2)cc1` [Example 18.28], for which the IC50 came out at 16.9 µM.
As to `CC(=O)N[C@@H](C)c1ccc(C2CCN(c3ncc(C(=O)NCc4cocn4)cn3)CC2)cc1` [Example 18.29], the IC50 came out at 6.5 µM.
As for `CC(=O)N[C@@H](C)c1ccc(C2CCN(c3ncc(C(=O)NC4CC4(F)F)cn3)CC2)cc1` (some centres unmarked) [Example 18.30], the IC50 was 5.2 µM.
On to `CC(=O)N[C@@H](C)c1ccc(C2CCN(c3ncc(C(=O)N(C)Cc4cccnc4)cn3)CC2)cc1` [Example 18.31], for which the IC50 turned out to be 9.3 µM.
The figure for `CC(=O)N[C@@H](C)c1ccc(C2CCN(c3ncc(C(=O)NCc4ccoc4)cn3)CC2)cc1` [Example 18.32] is 5.3 µM; for `CC(=O)N[C@@H](C)c1ccc(C2CCN(c3ncc(C(=O)Nc4cccc5c4OCO5)cn3)CC2)cc1` [Example 18.33] it is 1.5 µM; for `CC(=O)N[C@@H](C)c1ccc(C2CCN(c3ncc(C(=O)NCc4ncccn4)cn3)CC2)cc1` [Example 18.34] it is 3.5 µM.
In the case of `CC(=O)N[C@@H](C)c1ccc(C2CCN(c3ncc(C(=O)N[C@H]4CCOC4)cn3)CC2)cc1` [Example 18.35], the IC50 stood at 7.3 µM.
With `CC(=O)N[C@@H](C)c1ccc(C2CCN(c3ncc(C(=O)N4[C@@H]5CC[C@H]4C[C@@H](O)C5)cn3)CC2)cc1` [Example 18.36], the IC50 is 13.2 µM.
As for `CC(=O)N[C@@H](C)c1ccc(C2CCN(c3ncc(C(=O)N(C)Cc4ccccn4)cn3)CC2)cc1` [Example 18.37], the IC50 worked out at 6.4 µM.
As to `CC(=O)N[C@@H](C)c1ccc(C2CCN(c3ncc(C(=O)N4Cc5cccnc5C4)cn3)CC2)cc1` [Example 18.38], the IC50 came to 3.1 µM.
Consider `CC(=O)N[C@@H](C)c1ccc(C2CCN(c3ncc(C(=O)NC4COC4)cn3)CC2)cc1` [Example 18.39], for which the IC50 was found to be 15.2 µM.
The figure for `CC(=O)N[C@@H](C)c1ccc(C2CCN(c3ncc(C(=O)N4CCc5cnccc54)cn3)CC2)cc1` [Example 18.40] is 6.6 µM.
